Values quoted from earlier work in patent US20050239875A1, “Derivatives of dihydronepetalactone and method for preparation” (priority 2003, published 2005).

Tested on: insect
Details: disclosed by Hallahan in WO 03/079786

CC1COC(=O)C2C(C)CCC12 (stereo not shown) [DHN, Dihydronepetalactone]
insect repellent performance compared with N,N-diethyl-m-toluamide (DEET): compares favorably
